According to US20090239839A1, “RECEPTOR ANTAGONIST” (TAKEDA PHARMACEUTICAL COMPANY LIMITED, priority 2003, published 2009):

What was measured:
Format in all cases: in vivo
Wistar male rat [1] = test: Amnesia promoting activity of RFRP (cued fear conditioning, ventricle administration); conditions: RFRP-1 3 nmol into a ventricle, on 2 day (48 hours after training), sound stimulation
Procedure: FIG. 4 indicates a ratio of freezing in a sound clue when RFRP-1 (-□-) and a physiological saline (-∘-) are administered in a ventricle. An ordinate axis indicates freezing (%) of one day and two day after administration, respectively, expressed by mean±standard error.
Since an RFRP nerve is projected on amygdaloid complex, in order to study involvement of RFRP in amygdaloid complex-dependent memory•learning ability, influence under cued fear conditioning due to ventricle administration of RFRP-1 was studied. A mature Wistar male rat (weight 280 to 320 g at operation) was anesthetized with 50 mg/kg of pentobarbital by intraperitoneal administration, and a rat was fixed in a brain localization apparatus. A tooth cutting bar was set lower by 3.3 mm from an interoralline. A cranial bone was exposed, and a hole was opened in a bone using a dental drill in order to embed a guide cannulae AG-12 (internal diameter 0.4 mm, external diameter 0.5 mm, Eicom) in a ventricle. In addition, an anchor screw was embedded in four places at a periphery thereof. A stainless guide cannulae AG-12 was inserted so that its tip was positioned at an upper part of a side ventricle. A localization coordinate was set to be AP: −0.8 mm, L: 1.5 mm, H, 4.5 mm from a Blegma according to Atlas of Paxinos and Watson (1986). […]

Wistar male rat [2] = test: Blood glucose concentration increasing activity of RFRP (intravenous administration to rat); conditions: RFRP-1 10 nmol/kg intravenous, 5 minutes and 15 minutes after administration, vs physiological saline group
From the text: (§1) In the figure, (-∘-) represents a blood glucose concentration of a physiological saline administration group, (-▴-) represents a blood glucose concentration of an RFRP-1 1 nmol/kg administration group, and (-▪-) represents a blood concentration of an RFRP-1 10 nmol/kg administration group.
As RFRP, human RFRP-1 (37 amino acids) consisting of an amino acid sequence of 56th (Ser) to 92nd (Phe) of an amino acid sequence represented by SEQ ID No.: 4. Hereinafter, this peptide is abbreviated as RFRP-1.
In order to study influence of peripheral administration of RFRP-1 on a blood glucose concentration, operation for collecting blood under free moving was performed. A mature Wistar male rat (weight 310 to 350 g at operation) was anesthetized with 50 mg/kg of pentobarbital by intraperitoneal administration. The rat was fixed on an anatomic pad in a supine position, and a left jugular vein was exposed. […]
Overnight after operation, 300 μl of blood was collected using a tuberculin injection syringe having a dose of 1 ml and a 25 gauge injection needle (both Telmo) before administration of RFRP-1. […] A blood glucose concentration was measured using Fuji Drichem 3500 (FUJIFILM).

Wistar male rat [3] = test: Pancreatic glucagon secretion promoting activity of RFRP (blood glucagon and insulin in rat); conditions: RFRP-1 intravenous; for blood glucagon concentration: vs physiological saline group
From the text: as §1, with “blood glucagon” for “blood glucose”, “blood glucagon” for “blood”
as §1, with “blood insulin” for “blood glucose”, “blood insulin” for “blood”, “group. A value indicates mean±standard deviation (mean±SE) (n=4).” for “group.”
In order to study mechanism of blood glucose concentration increasing activity of RFRP-1, influence of RFRP-1 on a blood concentration of glucagon and insulin which are known as a hormone imparting a variation to a blood glucose concentration was studied. A mature Wistar male rat (weight 310 to 350 g at operation) was operated for collecting blood under free moving. Overnight after operation, 300 μl of a blood was collected using a tuberculin injection syringe having a dose of 1 ml and a 25 gauge injection needle (both Telmo) before administration of RFRP-1. In order to prevent blood coagulation, 3 μl of a 300 KIU/ml aprotinin solution containing 3 mg/ml EDTA had been placed into an injection syringe in advance. An Otsuka physiological saline or RFRP-1 dissolved in a physiological saline (80 nmol/mL) was intravenously administered through a tube at 1 mL/Kg. After 1, 3, 5 and 15 minutes from initiation of intravenous administration, each 300 μl of blood was collected from a jugular vein. The collected blood was centrifuged (13,000 rpm, 5 minutes) using a minor amount high speed cooling centrifuge (MR-150, Tommy Seiko), and the supernatant (plasma) was recovered.

RFRP-1: human RFRP-1 (37 amino acids) consisting of an amino acid sequence of 56th (Ser) to 92nd (Phe) of SEQ ID No.: 4 (SLNFEELKDWGPKNVIKMSTPAVNKMPHSFANLPLRF; Human)
rate of freezing (Wistar male rat [1]): 35.5%
blood glucose concentration (Wistar male rat [2]): significant (p<0.05, n=4) activity of increasing a blood glucose concentration
blood insulin concentration (Wistar male rat [3]): a variation due to administration of RFRP-1 was not recognized
blood glucagon concentration (Wistar male rat [3]; 5 minutes after administration): significant (p<0.01) increase was continued
blood glucagon concentration (Wistar male rat [3]; two minutes after administration): significant (p<0.01) increase in a blood glucagon concentration was recognized
